Experimental data as given in patent US9695155B2, “Herbicidal substituted pyrimidinyloxy benzene compounds” (E. I. DU PONT DE NEMOURS AND COMPANY, priority 2013, dated 2017).

Experiments:
[1] = test system: wild radish; assay: Test D postemergence; type: in vivo, Raphanus raphanistrum; conditions: Raphanus raphanistrum, post-emergence, scale 0 to 100 (0 no effect, 100 complete control), read-out: Plant response rating, Radish, Wild
How it was run: (§1)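 Species were sown in silt loam for preemergence treatment, or grown in peat-based medium to the 1–4-leaf stage (2–18 cm) for postemergence sprays. Test chemicals were formulated in a non-phytotoxic solvent mixture with surfactant. After 7–21 days in a controlled environment, plants were rated visually against controls on a 0 (no effect) to 100 (complete control) scale.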

[2] = test system: pigweed; assay: Test D postemergence; type: in vivo, Amaranthus retroflexus; conditions: Amaranthus retroflexus, post-emergence, scale 0 to 100 (0 no effect, 100 complete control), read-out: Plant response rating, Pigweed
How it was run: as §1

[3] = test system: sandbur; assay: Test E postemergence; type: in vivo, Cenchrus echinatus; conditions: Cenchrus echinatus, post-emergence, read-out: Plant response rating, Sandbur
How it was run: (§2)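 Compound in a non-phytotoxic solvent mixture with surfactant was applied preemergence to seeds in silt loam soil, or postemergence to plants 2 to 18 cm tall grown in peat-based potting medium. Plants were kept in a greenhouse for 14 to 21 days, then rated visually against untreated controls on a 0 (no effect) to 100 (complete control) scale.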

[4] = test system: green foxtail; assay: Test D preemergence; type: in vivo, Setaria viridis; conditions: Setaria viridis, pre-emergence, scale 0-100, read-out: Plant response rating, Foxtail, Green
How it was run: as §1

[5] = test system: chamomile; assay: Test D preemergence; type: in vivo, Matricaria inodora; conditions: Tripleurospermum inodorum, pre-emergence, scale 0-100, read-out: Plant response rating, Chamomile
How it was run: as §1

[6] = test system: fall panicum; assay: Test E postemergence; type: in vivo, Panicum dichotomiflorum; conditions: Panicum dichotomiflorum, post-emergence, read-out: Plant response rating, Panicum, Fall
How it was run: as §2

[7] = test system: bromegrass, downy; assay: Test D postemergence; type: in vivo, Bromus tectorum; conditions: Bromus tectorum, post-emergence, Postemergence, scale 0 to 100 (0 no effect, 100 complete control), read-out: Plant response rating, Bromegrass, Downy
How it was run: as §1

[8] = test system: lambsquarters; assay: Test D postemergence; type: in vivo, Chenopodium album; conditions: Chenopodium album, post-emergence, scale 0 to 100 (0 no effect, 100 complete control), read-out: Plant response rating, Lambsquarters
How it was run: as §1

[9] = test system: oilseed rape; assay: Test D preemergence; type: in vivo, Brassica napus; conditions: Brassica napus, pre-emergence, scale 0-100, read-out: Plant response rating, Oilseed Rape
How it was run: as §1

[10] = test system: green foxtail; assay: Test D postemergence; type: in vivo, Setaria viridis; conditions: Setaria viridis, post-emergence, scale 0 to 100 (0 no effect, 100 complete control), read-out: Plant response rating, Foxtail, Green
How it was run: as §1

[11] = test system: wild mustard; assay: Test D postemergence; type: in vivo, Sinapis arvensis; conditions: Brassica, post-emergence, scale 0 to 100 (0 no effect, 100 complete control), read-out: Plant response rating, Mustard, Wild
How it was run: as §1

[12] = test system: windgrass; assay: Test D postemergence; type: in vivo, Apera spica-venti; conditions: Apera spica-venti, post-emergence, scale 0 to 100 (0 no effect, 100 complete control), read-out: Plant response rating, Windgrass
How it was run: as §1

[13] = test system: cocklebur; assay: Test E preemergence; type: in vivo, Xanthium strumarium; conditions: for Cocklebur plant response rating: scale 0 to 100 (0 no effect, 100 complete control)
How it was run: as §2

[14] = Postemergence, 31 g ai/ha, scale 0 to 100
[15] = Postemergence, 62 g ai/ha, scale 0 to 100
[16] = Postemergence, 125 g ai/ha, scale 0 to 100
[17] = Postemergence, 250 g ai/ha, scale 0 to 100
[18] = postemergence, 16 g ai/ha, scale 0 to 100, 0 no effect, 100 complete control

N#Cc1cccc(Oc2ncc(Br)cn2)c1-n1cc(C(F)(F)F)cn1 [Compound 59, 3-[(5-bromo-2-pyrimidinyl)oxy]-2-[4-(trifluoromethyl)-1H-pyrazol-1-yl]benzonitrile]
pest or weed control at 31 g/ha ([1]; 31 g ai/ha): 35%
pest or weed control at 62 g/ha ([1]; 62 g ai/ha): 70%
pest or weed control at 125 g/ha ([1]; 125 g ai/ha): 80%
pest or weed control at 250 g/ha ([1]; 250 g ai/ha): 85%
pest or weed control at 31 g/ha ([2]; 31 g ai/ha): 100%
pest or weed control at 62 g/ha ([2]; 62 g ai/ha): 100%
pest or weed control at 125 g/ha ([2]; 125 g ai/ha): 95%
pest or weed control at 250 g/ha ([2]; 250 g ai/ha): 95%
pest or weed control at 31 g/ha [3, 14]: 0%
pest or weed control at 62 g/ha [3, 15]: 0%
pest or weed control at 125 g/ha [3, 16]: 10%
pest or weed control at 250 g/ha [3, 17]: 20%
pest or weed control at 16 g/ha [3, 18]: 0%
pest or weed control at 31 g/ha ([4]; 31 g ai/ha): 35%
pest or weed control at 62 g/ha ([4]; 62 g ai/ha): 100%
pest or weed control at 125 g/ha ([4]; 125 g ai/ha): 100%
pest or weed control at 250 g/ha ([4]; 250 g ai/ha): 100%
pest or weed control at 31 g/ha ([5]; 31 g ai/ha): 10%
pest or weed control at 62 g/ha ([5]; 62 g ai/ha): 15%
pest or weed control at 125 g/ha ([5]; 125 g ai/ha): 95%
pest or weed control at 250 g/ha ([5]; 250 g ai/ha): 85%
pest or weed control at 31 g/ha [6, 14]: 20%
pest or weed control at 62 g/ha [6, 15]: 20%
pest or weed control at 125 g/ha [6, 16]: 30%
pest or weed control at 250 g/ha [6, 17]: 45%
pest or weed control at 16 g/ha [6, 18]: 10%
pest or weed control at 31 g/ha ([7]; 31 g ai/ha): 20%
pest or weed control at 62 g/ha ([7]; 62 g ai/ha): 20%
pest or weed control at 125 g/ha ([7]; 125 g ai/ha): 25%
pest or weed control at 250 g/ha ([7]; 250 g ai/ha): 30%
pest or weed control at 31 g/ha ([8]; 31 g ai/ha): 90%
pest or weed control at 62 g/ha ([8]; 62 g ai/ha): 85%
pest or weed control at 125 g/ha ([8]; 125 g ai/ha): 80%
pest or weed control at 250 g/ha ([8]; 250 g ai/ha): 95%
plant injury at 31 g/ha ([9]; 31 g ai/ha): 65%
plant injury at 62 g/ha ([9]; 62 g ai/ha): 60%
plant injury at 125 g/ha ([9]; 125 g ai/ha): 100%
plant injury at 250 g/ha ([9]; 250 g ai/ha): 100%
pest or weed control at 31 g/ha ([10]; 31 g ai/ha): 20%
pest or weed control at 62 g/ha ([10]; 62 g ai/ha): 35%
pest or weed control at 125 g/ha ([10]; 125 g ai/ha): 50%
pest or weed control at 250 g/ha ([10]; 250 g ai/ha): 80%
pest or weed control at 31 g/ha ([11]; 31 g ai/ha): 100%
pest or weed control at 62 g/ha ([11]; 62 g ai/ha): 95%
pest or weed control at 125 g/ha ([11]; 125 g ai/ha): 100%
pest or weed control at 250 g/ha ([11]; 250 g ai/ha): 100%
pest or weed control at 31 g/ha ([12]; 31 g ai/ha): 15%
pest or weed control at 62 g/ha ([12]; 62 g ai/ha): 25%
pest or weed control at 125 g/ha ([12]; 125 g ai/ha): 35%
pest or weed control at 250 g/ha ([12]; 250 g ai/ha): 45%
Cocklebur plant response rating ([13]; 31 g ai/ha): 0
Cocklebur plant response rating ([13]; 62 g ai/ha): 0
Plant response rating, Cocklebur ([13]; 250 g ai/ha, scale 0 to 100, 0 no effect, 100 complete control): 0
